Assay results from ChEMBL document CHEMBL1129456, “Synthesis and evaluation of two positron-labeled nitric oxide synthase inhibitors, S-[11C]methylisothiourea and S-(2-[18F]fluoroethyl)isothiourea, as potential positron emission tomography tracers” (J Med Chem, 1996).

Key:
[1] = target: T1, Nitric oxide synthase 3 (Homo sapiens, UniProt P29474); assay: The compound was evaluated for the inhibitory potencies using human Endothelial nitric oxide synthase
T1 sequence (P29474 whole entry): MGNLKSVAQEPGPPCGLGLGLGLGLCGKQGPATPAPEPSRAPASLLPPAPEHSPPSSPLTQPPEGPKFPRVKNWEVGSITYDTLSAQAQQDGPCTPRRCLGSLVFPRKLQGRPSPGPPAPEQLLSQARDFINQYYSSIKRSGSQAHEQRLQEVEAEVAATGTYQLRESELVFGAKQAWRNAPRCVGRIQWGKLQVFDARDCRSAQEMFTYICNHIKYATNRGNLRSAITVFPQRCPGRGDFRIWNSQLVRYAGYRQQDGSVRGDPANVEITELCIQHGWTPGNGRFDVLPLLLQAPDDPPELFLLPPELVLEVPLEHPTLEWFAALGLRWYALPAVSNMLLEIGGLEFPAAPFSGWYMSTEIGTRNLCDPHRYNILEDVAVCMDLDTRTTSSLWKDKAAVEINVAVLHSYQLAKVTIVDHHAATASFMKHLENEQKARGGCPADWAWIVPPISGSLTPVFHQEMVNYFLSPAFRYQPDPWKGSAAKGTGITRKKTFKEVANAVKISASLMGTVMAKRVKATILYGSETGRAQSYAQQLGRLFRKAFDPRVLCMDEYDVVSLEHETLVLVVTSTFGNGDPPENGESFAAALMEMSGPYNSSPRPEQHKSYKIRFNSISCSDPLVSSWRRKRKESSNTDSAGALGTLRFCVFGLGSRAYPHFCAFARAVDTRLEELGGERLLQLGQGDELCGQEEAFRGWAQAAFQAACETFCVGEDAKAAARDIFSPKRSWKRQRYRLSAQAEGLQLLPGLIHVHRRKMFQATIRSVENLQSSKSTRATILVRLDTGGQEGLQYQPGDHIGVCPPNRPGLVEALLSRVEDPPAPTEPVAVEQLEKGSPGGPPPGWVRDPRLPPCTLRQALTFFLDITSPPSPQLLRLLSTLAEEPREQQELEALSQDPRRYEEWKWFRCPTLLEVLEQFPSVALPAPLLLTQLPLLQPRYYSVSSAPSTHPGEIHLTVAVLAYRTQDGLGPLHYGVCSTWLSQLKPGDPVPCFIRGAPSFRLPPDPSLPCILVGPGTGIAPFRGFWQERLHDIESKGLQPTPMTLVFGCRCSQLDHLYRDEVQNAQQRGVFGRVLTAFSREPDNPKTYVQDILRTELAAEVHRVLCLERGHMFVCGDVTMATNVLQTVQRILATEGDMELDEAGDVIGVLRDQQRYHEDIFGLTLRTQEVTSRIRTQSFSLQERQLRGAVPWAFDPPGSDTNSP

[2] = target: Nitric oxide synthase, inducible (Homo sapiens, UniProt P35228); assay: The compound was evaluated for the inhibitory potencies using human Inducible nitric oxide synthase (hiNOS)
Nitric oxide synthase, inducible (Homo sapiens, UniProt P35228), sequence (P35228 whole entry): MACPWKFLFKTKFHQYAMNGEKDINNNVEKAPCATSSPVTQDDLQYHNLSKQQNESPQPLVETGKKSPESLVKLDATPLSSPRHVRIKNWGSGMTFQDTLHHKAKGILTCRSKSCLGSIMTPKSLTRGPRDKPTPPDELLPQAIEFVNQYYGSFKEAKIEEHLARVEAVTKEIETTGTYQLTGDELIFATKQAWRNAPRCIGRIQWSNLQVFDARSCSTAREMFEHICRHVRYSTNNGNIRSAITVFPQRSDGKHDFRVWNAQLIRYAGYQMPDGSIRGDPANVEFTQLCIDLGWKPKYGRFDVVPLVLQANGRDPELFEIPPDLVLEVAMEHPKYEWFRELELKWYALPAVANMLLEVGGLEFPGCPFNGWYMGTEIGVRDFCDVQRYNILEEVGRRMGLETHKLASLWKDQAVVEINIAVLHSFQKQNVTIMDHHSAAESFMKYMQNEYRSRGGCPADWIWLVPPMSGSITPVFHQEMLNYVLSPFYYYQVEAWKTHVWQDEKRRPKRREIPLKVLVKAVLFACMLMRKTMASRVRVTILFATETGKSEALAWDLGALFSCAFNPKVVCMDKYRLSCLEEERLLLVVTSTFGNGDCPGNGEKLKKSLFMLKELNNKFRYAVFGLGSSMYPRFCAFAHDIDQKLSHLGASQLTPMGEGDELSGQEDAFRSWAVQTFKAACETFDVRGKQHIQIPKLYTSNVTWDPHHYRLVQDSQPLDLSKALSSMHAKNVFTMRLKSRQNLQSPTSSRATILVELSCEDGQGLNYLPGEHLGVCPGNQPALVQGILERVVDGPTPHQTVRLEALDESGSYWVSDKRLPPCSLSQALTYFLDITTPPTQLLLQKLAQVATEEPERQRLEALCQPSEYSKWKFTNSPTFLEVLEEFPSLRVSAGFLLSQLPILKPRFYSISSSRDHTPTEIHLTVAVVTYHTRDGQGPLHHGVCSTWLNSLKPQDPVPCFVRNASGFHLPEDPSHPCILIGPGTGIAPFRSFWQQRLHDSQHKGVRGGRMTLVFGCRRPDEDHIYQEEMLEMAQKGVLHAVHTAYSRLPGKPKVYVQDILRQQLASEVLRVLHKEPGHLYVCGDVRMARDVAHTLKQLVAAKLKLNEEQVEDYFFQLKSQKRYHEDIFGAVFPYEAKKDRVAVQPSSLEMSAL

[3] = target: T2, Nitric oxide synthase, inducible (Mus musculus, UniProt P29477); assay: Binding affinity against mouse Inducible nitric oxide synthase (iNOS)
T2 sequence (P29477 whole entry): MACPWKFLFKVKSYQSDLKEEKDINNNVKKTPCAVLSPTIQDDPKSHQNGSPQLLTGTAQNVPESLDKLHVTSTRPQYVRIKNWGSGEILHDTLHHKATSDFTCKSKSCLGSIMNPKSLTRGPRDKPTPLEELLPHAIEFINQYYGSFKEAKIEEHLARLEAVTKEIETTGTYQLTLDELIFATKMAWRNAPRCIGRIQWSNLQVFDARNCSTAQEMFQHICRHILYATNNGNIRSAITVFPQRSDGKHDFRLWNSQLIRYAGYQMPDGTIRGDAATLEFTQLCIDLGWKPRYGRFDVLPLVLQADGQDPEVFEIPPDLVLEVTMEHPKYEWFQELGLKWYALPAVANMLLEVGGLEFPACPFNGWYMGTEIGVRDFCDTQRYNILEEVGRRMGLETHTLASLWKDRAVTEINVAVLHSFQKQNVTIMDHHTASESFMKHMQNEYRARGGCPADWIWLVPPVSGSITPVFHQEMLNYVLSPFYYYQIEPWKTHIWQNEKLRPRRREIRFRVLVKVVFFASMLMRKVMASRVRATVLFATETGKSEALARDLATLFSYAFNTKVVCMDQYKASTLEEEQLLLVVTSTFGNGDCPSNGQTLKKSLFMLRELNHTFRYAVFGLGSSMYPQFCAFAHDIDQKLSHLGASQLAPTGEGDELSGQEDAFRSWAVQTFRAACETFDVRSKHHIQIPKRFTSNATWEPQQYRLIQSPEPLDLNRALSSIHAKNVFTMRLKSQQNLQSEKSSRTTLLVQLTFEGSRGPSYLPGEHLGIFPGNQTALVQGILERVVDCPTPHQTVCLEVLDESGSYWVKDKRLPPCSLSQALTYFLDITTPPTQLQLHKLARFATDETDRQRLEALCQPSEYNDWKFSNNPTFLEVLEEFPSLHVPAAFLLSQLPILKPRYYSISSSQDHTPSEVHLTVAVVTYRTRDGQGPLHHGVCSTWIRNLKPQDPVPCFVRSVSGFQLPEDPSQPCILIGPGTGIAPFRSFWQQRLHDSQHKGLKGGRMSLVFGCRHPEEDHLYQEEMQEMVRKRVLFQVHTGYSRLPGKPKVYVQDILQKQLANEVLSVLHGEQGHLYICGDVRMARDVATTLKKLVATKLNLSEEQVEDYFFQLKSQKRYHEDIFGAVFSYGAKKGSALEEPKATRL

[4] = species on record: Rattus norvegicus; assay: Maximum enzyme concentration from lipopolysaccharide treated rat liver.; assay type: functional

Compound `N=C(N)SCCF` has an IC50 [1] of 1260 nM and an IC50 [2] of 140 nM.

`CCSC(=N)N` [ETHYLISOTHIOUREA] was tested, and the IC50 [1] was 1300 nM, the Ki [3] was 5.2 nM and the IC50 [2] was 160 nM. The Bmax [4] was 85 nM.
